Patent US3950352A, “2,2-Dimethyl-3R-carboxy-6S-phenyl(or phenoxy)acetamido-1-oxa-4-aza-5R-bicyclo[3,2,0]heptan-7-one and processes for their production” (Queen's University, priority 1974, dated 1976)

Assay: antibacterial activity (organism not stated)
Type: cell-based
Conditions: at levels of 250 mcg./ml.
Description: After overnight development in a system containing n-butanol 60:acetic acid:15: water 25, the strips were air dried and one set was sprayed with Riker penicillinase. Both sets were then subjected to bioautography on B. subtilis.

With CC(C)=C(C(=O)O)N1C(=O)[C@H]2N=C(Cc3ccccc3)O[C@H]21 [oxazoline carboxylic acid, 2-benzyl-6-(1'-carboxy-2'-methylprop-1'-enyl)-1-oxa-3,6-diaza-4S,5R-bicyclo [3,2,0] hept-2-en-7-one] the antibacterial activity was “inactive”.
